Some test systems named below: 786-0 renal; HL-60(TB) leukemia; LOX IMVI melanoma; NCI-H522 lung; OVCAR-3 ovarian; RXF 393 renal; SF-539 CNS; SN12C renal; SW-620 colon; UACC-62 melanoma.
Common to all, as to assay: inhibition of tumour cell growth, NCI panel, 48 h

“And” between values parts separate entries of the source, which are not always exact repeats. Equal values may be shown once.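 Values below derive from 48-hour exposures of cells grown in 96-well plates, with endpoints linearly interpolated between the two concentrations bracketing the appropriate inhibition level. GI50 marks 50% less growth. TGI: concentration producing complete growth inhibition.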

Consider `N#C/C(=C\c1ccc2[nH]ccc2c1)C(=O)NCCCCNC(=O)/C(C#N)=C/c1ccc2[nH]ccc2c1`, for which the TGI was more than 31.6 µM in the test on 786-0 renal; more than 31.6 µM in the test with HL-60(TB) leukemia; more than 31.6 µM in the test with LOX IMVI melanoma; more than 31.6 µM with NCI-H522 lung; more than 31.6 µM with OVCAR-3 ovarian; more than 10 µM with RXF 393 renal. Also, the TGI in the test on SF-539 CNS, in the test with SN12C renal, in the test on SW-620 colon and in the test with UACC-62 melanoma was more than 31.6 µM each time.

On to `CCCCCCCC(=O)OCC/C=C/C1OC1C1OC(=O)/C=C\C=C\C(=O)N(C(C)=O)C(=O)/C=C(/C)CCC2OC2C1OC(=O)NC(C)=O` (stereo not given), for which the GI50 is 4.12 µM in the test with 786-0 renal; 8.18 µM with HL-60(TB) leukemia; 2.93 µM in the test with LOX IMVI melanoma; 3.78 µM in the test with NCI-H522 lung; 4.07 µM in the test on OVCAR-3 ovarian; 4.34 µM with RXF 393 renal. Further, the GI50 with SF-539 CNS was 3.68 µM; with SN12C renal it was 7.29 µM; in the test with SW-620 colon it was 6.42 µM; with UACC-62 melanoma it was 6.27 µM. Besides, the TGI in the test on 786-0 renal was 11.1 µM; with HL-60(TB) leukemia, more than 25 µM; in the test on LOX IMVI melanoma it was 6.74 µM; in the test with NCI-H522 lung, 8.16 µM; in the test with OVCAR-3 ovarian it was 8.4 µM; with RXF 393 renal it was 9.45 µM. For the same molecule, the TGI in the test with SF-539 CNS is 7.36 µM; in the test on SN12C renal it was more than 25 µM; in the test on SW-620 colon, 24 µM; in the test with UACC-62 melanoma it was more than 25 µM.

Regarding `Cc1ccc(/C(=N/Nc2ccc([N+](=O)[O-])cc2)Sc2cc(Cl)c(C)cc2S(N)(=O)=O)cc1`, the GI50 in the test on 786-0 renal is 1.82 µM; in the test with HL-60(TB) leukemia, 11.9 µM; in the test with LOX IMVI melanoma, 1.49 µM; in the test on NCI-H522 lung it was 4.96 µM; in the test with OVCAR-3 ovarian, 1.22 µM; in the test on RXF 393 renal, 2.01 µM. Moreover, the GI50 with SF-539 CNS is 1.1 µM; in the test with SN12C renal it was 1.69 µM; with SW-620 colon, 2.55 µM; with UACC-62 melanoma, 1.73 µM. For the same molecule, the TGI is 3.37 µM in the test with 786-0 renal; 42.1 µM in the test on HL-60(TB) leukemia; 3.45 µM in the test on LOX IMVI melanoma; more than 28.2 µM with NCI-H522 lung; 2.61 µM in the test with OVCAR-3 ovarian; 6.52 µM with RXF 393 renal. Further, the TGI with SF-539 CNS came to 2.97 µM; in the test on SN12C renal it was 3.95 µM; in the test on SW-620 colon, 10.5 µM; in the test with UACC-62 melanoma it was 3.64 µM.

In the case of `O=C(Nc1sc2c(c1C(=O)O)CCCC2)c1ccco1`, the GI50 in the test on 786-0 renal was more than 50 µM; with HL-60(TB) leukemia, more than 50 µM; with LOX IMVI melanoma, 22.8 µM; with NCI-H522 lung, more than 50 µM; in the test with OVCAR-3 ovarian, more than 50 µM; in the test with RXF 393 renal, more than 50 µM. Moreover, the GI50 was 47.5 µM in the test on SF-539 CNS, 8.63 µM in the test on SN12C renal, more than 50 µM in the test with SW-620 colon and more than 50 µM in the test with UACC-62 melanoma. The TGI in the test on 786-0 renal, with HL-60(TB) leukemia, in the test with LOX IMVI melanoma, in the test on NCI-H522 lung, in the test on OVCAR-3 ovarian and in the test with RXF 393 renal was more than 50 µM throughout. Moreover, the TGI in the test on SF-539 CNS is more than 50 µM; in the test on SN12C renal it was 42 µM; with SW-620 colon, more than 50 µM; in the test on UACC-62 melanoma it was more than 50 µM.

Regarding `Cn1c(I)c(C#C[Si](C)(C)C)c(=O)n(C(=O)c2ccccc2)c1=O`, the GI50 in the test with 786-0 renal was 3.49 µM; in the test on HL-60(TB) leukemia, 1.52 µM; in the test with LOX IMVI melanoma, 2.79 µM; in the test with NCI-H522 lung, 4.19 µM; in the test on OVCAR-3 ovarian, 1.79 µM; in the test on RXF 393 renal, 1.64 µM. The GI50 is 5.3 µM in the test with SF-539 CNS, 6.26 µM in the test on SN12C renal, 2.01 µM with SW-620 colon and 4.51 µM in the test with UACC-62 melanoma. Also, the TGI is 11.7 µM in the test on 786-0 renal; more than 51.5 µM in the test with HL-60(TB) leukemia; 8.26 µM with LOX IMVI melanoma; 8.99 µM in the test with NCI-H522 lung; 3.29 µM in the test on OVCAR-3 ovarian; 3.14 µM in the test on RXF 393 renal. Besides, the TGI in the test on SF-539 CNS is 12.1 µM; in the test with SN12C renal, 18.8 µM; in the test with SW-620 colon it was 4.27 µM; with UACC-62 melanoma, 17 µM.

In the case of `Cc1ccc(C2=CC(=O)c3ccccc3C2=O)n1-c1ccccc1`, the TGI is more than 100 µM in the test on 786-0 renal; 94.2 µM in the test on HL-60(TB) leukemia; more than 100 µM in the test with LOX IMVI melanoma; more than 100 µM in the test with NCI-H522 lung; more than 100 µM with OVCAR-3 ovarian; more than 100 µM in the test with RXF 393 renal. The TGI with SF-539 CNS, with SN12C renal, with SW-620 colon and with UACC-62 melanoma was more than 100 µM in each case.

As to `O=C(Nc1n[nH]c2cc(-c3cc(F)ccc3F)ccc12)C1CC1`, the GI50 with 786-0 renal was more than 25 µM; with HL-60(TB) leukemia, 7.81 µM; with LOX IMVI melanoma it was 14.4 µM; in the test on NCI-H522 lung, 9.15 µM; in the test on OVCAR-3 ovarian, 9.3 µM; in the test on RXF 393 renal, 17.3 µM. The GI50 in the test with SF-539 CNS is 13.5 µM; in the test on SN12C renal, 15.7 µM; in the test with SW-620 colon it was 10.7 µM; in the test with UACC-62 melanoma, 19.5 µM. Besides, the TGI was more than 25 µM in the test with 786-0 renal; more than 25 µM in the test on HL-60(TB) leukemia; more than 25 µM in the test on LOX IMVI melanoma; more than 25 µM with NCI-H522 lung; 24.2 µM in the test on OVCAR-3 ovarian; more than 25 µM in the test with RXF 393 renal. Moreover, the TGI in the test with SF-539 CNS, with SN12C renal, in the test with SW-620 colon and in the test on UACC-62 melanoma was more than 25 µM in each case.

For the molecule `[N-]=[N+]=CC(=O)CCC(N)C(=O)O` (stereo not given), the GI50 in the test on 786-0 renal is 7.17 µM; in the test on HL-60(TB) leukemia it was 2.3 µM; in the test on LOX IMVI melanoma, 0.793 µM; in the test on NCI-H522 lung it was 0.963 µM; in the test with OVCAR-3 ovarian it was 1.45 µM; with RXF 393 renal, 24.6 µM. Besides, the GI50 is 6.31 µM in the test on SF-539 CNS, 4.86 µM with SN12C renal, 12.6 µM in the test on SW-620 colon and 3.82 µM in the test with UACC-62 melanoma. Moreover, the TGI is more than 250 µM with 786-0 renal; 208 µM in the test on HL-60(TB) leukemia; 167 µM in the test on LOX IMVI melanoma; more than 149 µM with NCI-H522 lung; more than 244 µM in the test on OVCAR-3 ovarian; 210 µM with RXF 393 renal. Besides, the TGI in the test with SF-539 CNS is 48.7 µM and > 250 µM; with SN12C renal, 248 µM; with SW-620 colon, more than 250 µM; with UACC-62 melanoma, more than 147 µM.

As to `COc1cc(/C=N/NC(=O)c2cnn3c2NC(c2ccccc2)C3)ccc1OC1CCCC1` (stereo not given), the GI50 in the test with 786-0 renal is 0.639 µM; in the test on HL-60(TB) leukemia, 0.384 µM; in the test with LOX IMVI melanoma, 0.581 µM; in the test with NCI-H522 lung it was 0.475 µM; in the test on OVCAR-3 ovarian, 0.262 µM; in the test with RXF 393 renal it was 0.357 µM. Besides, the GI50 in the test with SF-539 CNS is 0.537 µM; with SN12C renal it was 1.85 µM; in the test on SW-620 colon it was 0.468 µM; with UACC-62 melanoma, 0.573 µM. In addition, the TGI came out at 3.73 µM in the test on 786-0 renal; 3.93 µM with HL-60(TB) leukemia; 2.21 µM in the test on LOX IMVI melanoma; 6.54 µM in the test with NCI-H522 lung; 0.697 µM in the test on OVCAR-3 ovarian; 1.47 µM with RXF 393 renal. Also, the TGI stood at 1.99 µM in the test on SF-539 CNS, 9.61 µM with SN12C renal, 2.38 µM in the test on SW-620 colon and 3.67 µM with UACC-62 melanoma.

For the molecule `COC1=CC(=O)O/C1=C(\OC)C1OC1c1ccccc1` (stereo not given), the TGI in the test on 786-0 renal, in the test with HL-60(TB) leukemia, in the test with LOX IMVI melanoma, in the test on NCI-H522 lung, in the test with OVCAR-3 ovarian and with RXF 393 renal was more than 100 µM each time. For the same molecule, the TGI in the test with SF-539 CNS, in the test on SN12C renal, with SW-620 colon and in the test with UACC-62 melanoma was more than 100 µM in each case.

Regarding `C=C1C(=O)O[C@@H]2/C=C(/C)[C@@H](OC(C)=O)C/C=C(\C)C(O)[C@@H](OC(=O)/C(C)=C\C)C12` (stereo not given in full), the TGI in the test on 786-0 renal is 29.7 µM; with HL-60(TB) leukemia it was 49.6 µM; in the test with LOX IMVI melanoma, 27.7 µM; in the test on NCI-H522 lung it was 32.3 µM; in the test with OVCAR-3 ovarian, more than 100 µM; in the test with RXF 393 renal, 79.4 µM. In addition, the TGI in the test with SF-539 CNS was more than 100 µM; with SN12C renal, 43.1 µM; in the test with SW-620 colon, 30.1 µM; in the test with UACC-62 melanoma, 88.4 µM.

Take `CCCCCCCC/C=C/CCCCCCCC1=NC(C)(C)CN1C(C)(C)CO`: the GI50 with 786-0 renal is 1.64 µM; with HL-60(TB) leukemia, 2.23 µM; in the test with LOX IMVI melanoma, 1.61 µM; with NCI-H522 lung, 1.83 µM; with OVCAR-3 ovarian, 1.74 µM; with RXF 393 renal, 2.17 µM. The GI50 in the test with SF-539 CNS was 1.68 µM; in the test with SN12C renal, 2.25 µM; in the test with SW-620 colon it was 1.63 µM; with UACC-62 melanoma, 1.82 µM. Also, the TGI in the test with 786-0 renal turned out to be 3.12 µM; in the test on HL-60(TB) leukemia it was 5.5 µM; with LOX IMVI melanoma, 2.98 µM; with NCI-H522 lung, 3.7 µM; in the test on OVCAR-3 ovarian it was 3.13 µM; in the test on RXF 393 renal it was 3.99 µM. Also, the TGI in the test on SF-539 CNS came to 3.34 µM; in the test on SN12C renal, 6.67 µM; in the test on SW-620 colon, 3.11 µM; in the test on UACC-62 melanoma, 3.47 µM.

For the origin of these results see PubChem BioAssay (NCI).
